One data set concerns the target Glutamate receptor 2 (Rattus norvegicus, UniProt P19491). The data set is described as follows: Displacement of [3H]AMPA from recombinant homomeric rat GluA2 receptor expressed in baculovirus infected Sf9 insect cell membranes. For orientation: In a radioligand displacement assay an active substance lowers the binding of a labelled ligand.
The species named for data set [1] is Rattus norvegicus. The data set is described as follows: Selectivity ratio of Ki for recombinant homomeric rat GluK3 expressed in Sf9 insect cells to Ki for recombinant homomeric rat GluK1 expressed in Sf9 insect cells.
Data set [2] has as its target Glutamate receptor ionotropic, kainate 1 (Rattus norvegicus, UniProt P22756). The experiment in a line: Displacement of [3H]SYM2081 from recombinant homomeric rat GluK1 receptor expressed in baculovirus infected Sf9 insect cell membranes.
The target in data set [3] is Glutamate receptor ionotropic, kainate 2 (Rattus norvegicus, UniProt P42260). The experiment in a line: Displacement of [3H]SYM2081 from recombinant homomeric rat GluK2 receptor expressed in baculovirus infected Sf9 insect cell membranes.
Data set [4] concerns the target Glutamate receptor ionotropic, kainate 3 (Rattus norvegicus, UniProt P42264). The data set is described as follows: Displacement of [3H]SYM2081 from recombinant homomeric rat GluK3 receptor expressed in baculovirus infected Sf9 insect cell membranes.
For data set [5], the species on record is Rattus norvegicus. The experiment in a line: Selectivity ratio of Ki for recombinant homomeric rat GluK3 expressed in Sf9 insect cells to Ki for recombinant homomeric rat GluA2 expressed in Sf9 insect cells.
Data set [6] has as its system Rattus norvegicus. The data set is described as follows: Analgesic activity in Wistar Han rat assessed as inhibition of formalin-induced pain by measuring flexing duration in early phase at 2 mg/kg, ip administered 30 mins prior to formalin injection measured for first 15 mins after formalin injection. It counts as functional, organism-based.
Data set [7] has as its system Rattus norvegicus. The experiment in a line: Analgesic activity in Wistar Han rat assessed as inhibition of formalin-induced pain by measuring time spent licking injected paw in early phase at 2 mg/kg, ip administered 30 mins prior to formalin injection measured for first 15 mins after formalin injection. It counts as functional, organism-based.
In data set [8] the test system is Rattus norvegicus. The data set is described as follows: Analgesic activity in Wistar Han rat assessed as inhibition of formalin-induced pain by measuring paw-jerk frequency in early phase at 2 mg/kg, ip administered 30 mins prior to formalin injection measured for first 15 mins after formalin injection. Type of data set: functional, organism-based.
Data set [9] has as its system Rattus norvegicus. The experiment in a line: Analgesic activity in Wistar Han rat assessed as inhibition of formalin-induced pain by measuring locomotor activities at 2 mg/kg, ip administered 30 mins prior to formalin injection measured after 45 mins by formalin test. Type of data set: functional, organism-based.
For data set [10], the system named is Rattus norvegicus. The experiment in a line: Analgesic activity in Wistar Han rat assessed as inhibition of formalin-induced pain by measuring locomotor activities at 2 mg/kg, ip administered 30 mins prior to formalin injection measured after 30 mins by formalin test. Type of data set: functional, organism-based.
In data set [11] the test system is Rattus norvegicus. The data set is described as follows: Analgesic activity in Wistar Han rat assessed as inhibition of formalin-induced pain by measuring paw-jerk frequency in early phase at 2 mg/kg, ip administered 30 mins prior to formalin injection measured for 15 to 60 mins after formalin injection. Type of data set: functional, organism-based.
The test system of data set [12] is Rattus norvegicus. The experiment in a line: Analgesic activity in Wistar Han rat assessed as inhibition of formalin-induced pain by measuring flexing duration in late phase at 2 mg/kg, ip administered 30 mins prior to formalin injection measured for 15 to 60 mins after formalin injection.
In data set [13] the test system is Rattus norvegicus. The data set is described as follows: Analgesic activity in Wistar Han rat assessed as inhibition of formalin-induced pain by measuring time spent licking injected paw in late phase at 2 mg/kg, ip administered 30 mins prior to formalin injection measured for 15 to 60 mins after formalin injection.
Data set [14] can be described thus: Permeability of compound in rat brain at 100 uM perfused for 60 secs by LC-MS analysis. It counts as ADME, tissue-based. The following applies: not told, other: brain perfusion, read-out: permeability.

Activity calls are given as the source filed them. The calls are words filed in the database; no cut-off is given here.

Glutamate receptor ionotropic, kainate 2, sequence (P42260 whole entry): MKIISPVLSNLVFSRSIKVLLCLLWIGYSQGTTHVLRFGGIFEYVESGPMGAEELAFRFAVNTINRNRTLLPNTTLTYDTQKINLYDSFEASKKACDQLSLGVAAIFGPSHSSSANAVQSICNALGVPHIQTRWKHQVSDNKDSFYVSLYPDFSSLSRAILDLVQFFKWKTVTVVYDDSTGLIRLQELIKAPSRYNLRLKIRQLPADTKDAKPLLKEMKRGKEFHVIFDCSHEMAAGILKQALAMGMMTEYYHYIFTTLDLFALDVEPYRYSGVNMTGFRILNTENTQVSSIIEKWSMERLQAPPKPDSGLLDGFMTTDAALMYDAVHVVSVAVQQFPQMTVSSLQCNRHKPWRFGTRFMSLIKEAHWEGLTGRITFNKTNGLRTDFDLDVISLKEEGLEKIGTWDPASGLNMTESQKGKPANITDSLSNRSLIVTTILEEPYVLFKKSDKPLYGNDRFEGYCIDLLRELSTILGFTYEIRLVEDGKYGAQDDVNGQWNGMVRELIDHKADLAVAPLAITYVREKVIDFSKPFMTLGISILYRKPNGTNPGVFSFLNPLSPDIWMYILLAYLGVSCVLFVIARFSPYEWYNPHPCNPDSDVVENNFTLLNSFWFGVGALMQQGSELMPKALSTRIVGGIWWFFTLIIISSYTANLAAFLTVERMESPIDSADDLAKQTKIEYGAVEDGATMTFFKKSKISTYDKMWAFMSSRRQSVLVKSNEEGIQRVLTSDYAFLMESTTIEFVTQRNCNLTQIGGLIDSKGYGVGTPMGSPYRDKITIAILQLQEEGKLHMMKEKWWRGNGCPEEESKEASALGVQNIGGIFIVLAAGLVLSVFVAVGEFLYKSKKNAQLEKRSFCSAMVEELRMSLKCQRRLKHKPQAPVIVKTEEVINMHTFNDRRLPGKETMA
Glutamate receptor ionotropic, kainate 3, sequence (P42264 whole entry): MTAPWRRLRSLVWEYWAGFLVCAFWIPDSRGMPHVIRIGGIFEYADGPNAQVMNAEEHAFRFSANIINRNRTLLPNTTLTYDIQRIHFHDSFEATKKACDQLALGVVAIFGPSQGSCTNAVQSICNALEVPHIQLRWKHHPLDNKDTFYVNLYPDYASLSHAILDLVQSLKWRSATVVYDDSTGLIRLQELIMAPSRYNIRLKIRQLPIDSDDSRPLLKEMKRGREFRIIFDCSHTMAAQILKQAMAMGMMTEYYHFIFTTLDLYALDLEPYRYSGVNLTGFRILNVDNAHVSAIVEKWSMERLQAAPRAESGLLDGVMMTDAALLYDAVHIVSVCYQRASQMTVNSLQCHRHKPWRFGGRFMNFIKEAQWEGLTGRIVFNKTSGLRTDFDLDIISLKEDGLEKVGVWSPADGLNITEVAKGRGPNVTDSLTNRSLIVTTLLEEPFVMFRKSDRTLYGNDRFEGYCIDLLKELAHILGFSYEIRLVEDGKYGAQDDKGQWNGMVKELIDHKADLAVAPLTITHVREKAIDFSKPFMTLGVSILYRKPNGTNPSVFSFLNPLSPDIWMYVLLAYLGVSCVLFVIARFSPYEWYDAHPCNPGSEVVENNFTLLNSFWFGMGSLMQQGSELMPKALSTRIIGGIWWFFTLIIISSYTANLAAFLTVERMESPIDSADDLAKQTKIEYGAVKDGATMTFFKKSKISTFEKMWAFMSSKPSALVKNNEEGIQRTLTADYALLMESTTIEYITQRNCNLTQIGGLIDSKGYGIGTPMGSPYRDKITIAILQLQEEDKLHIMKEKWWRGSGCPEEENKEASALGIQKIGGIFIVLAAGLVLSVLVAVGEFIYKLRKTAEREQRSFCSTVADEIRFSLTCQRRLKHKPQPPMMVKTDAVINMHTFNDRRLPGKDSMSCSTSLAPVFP
Glutamate receptor 2, sequence (P19491 whole entry): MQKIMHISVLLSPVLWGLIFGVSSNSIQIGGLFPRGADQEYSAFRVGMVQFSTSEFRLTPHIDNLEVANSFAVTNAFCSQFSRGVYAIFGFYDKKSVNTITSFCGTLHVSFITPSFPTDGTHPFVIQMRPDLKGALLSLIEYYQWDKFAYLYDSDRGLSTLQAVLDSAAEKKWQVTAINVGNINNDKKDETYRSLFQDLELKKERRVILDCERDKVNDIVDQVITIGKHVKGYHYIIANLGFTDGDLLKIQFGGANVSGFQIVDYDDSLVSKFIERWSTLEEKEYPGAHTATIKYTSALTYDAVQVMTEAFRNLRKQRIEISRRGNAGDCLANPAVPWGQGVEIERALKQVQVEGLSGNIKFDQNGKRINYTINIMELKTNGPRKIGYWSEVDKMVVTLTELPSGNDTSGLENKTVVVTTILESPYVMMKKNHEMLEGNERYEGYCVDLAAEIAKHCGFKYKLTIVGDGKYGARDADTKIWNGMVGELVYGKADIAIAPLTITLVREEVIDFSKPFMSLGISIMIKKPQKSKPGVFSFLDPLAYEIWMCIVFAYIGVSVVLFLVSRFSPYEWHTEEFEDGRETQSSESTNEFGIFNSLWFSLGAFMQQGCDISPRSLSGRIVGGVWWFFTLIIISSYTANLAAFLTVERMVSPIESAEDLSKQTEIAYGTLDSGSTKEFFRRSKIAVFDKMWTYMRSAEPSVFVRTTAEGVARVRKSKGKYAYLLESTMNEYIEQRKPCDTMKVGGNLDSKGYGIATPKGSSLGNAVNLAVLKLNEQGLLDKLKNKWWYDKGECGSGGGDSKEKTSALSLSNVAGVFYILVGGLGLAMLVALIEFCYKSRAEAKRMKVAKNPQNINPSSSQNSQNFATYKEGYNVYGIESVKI
Glutamate receptor ionotropic, kainate 1, sequence (P22756 whole entry): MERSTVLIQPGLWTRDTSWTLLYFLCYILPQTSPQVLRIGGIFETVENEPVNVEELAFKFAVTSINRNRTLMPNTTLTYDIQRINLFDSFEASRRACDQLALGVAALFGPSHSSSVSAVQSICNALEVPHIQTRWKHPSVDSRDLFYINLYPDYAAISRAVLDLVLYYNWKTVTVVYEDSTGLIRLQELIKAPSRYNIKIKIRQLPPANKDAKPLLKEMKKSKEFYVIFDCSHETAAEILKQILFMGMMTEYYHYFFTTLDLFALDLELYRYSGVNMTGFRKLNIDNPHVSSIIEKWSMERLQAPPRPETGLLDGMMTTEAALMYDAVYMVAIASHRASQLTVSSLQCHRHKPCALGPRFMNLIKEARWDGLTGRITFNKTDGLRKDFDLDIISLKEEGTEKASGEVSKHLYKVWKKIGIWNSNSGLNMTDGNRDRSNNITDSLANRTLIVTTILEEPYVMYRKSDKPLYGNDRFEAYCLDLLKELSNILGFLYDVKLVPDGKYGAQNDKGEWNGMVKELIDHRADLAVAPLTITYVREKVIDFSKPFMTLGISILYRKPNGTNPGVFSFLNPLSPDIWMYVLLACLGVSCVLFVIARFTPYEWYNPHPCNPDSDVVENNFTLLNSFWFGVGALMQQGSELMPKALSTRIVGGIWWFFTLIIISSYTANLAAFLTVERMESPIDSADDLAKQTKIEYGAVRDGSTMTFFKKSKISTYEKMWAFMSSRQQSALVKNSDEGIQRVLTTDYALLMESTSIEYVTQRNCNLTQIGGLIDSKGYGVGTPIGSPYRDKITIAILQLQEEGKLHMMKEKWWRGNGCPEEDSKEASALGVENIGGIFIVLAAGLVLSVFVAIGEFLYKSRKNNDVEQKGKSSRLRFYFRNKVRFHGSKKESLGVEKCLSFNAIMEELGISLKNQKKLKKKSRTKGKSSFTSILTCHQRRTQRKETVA

For the molecule `CN1Cc2c(n(C[C@H](N)C(=O)O)c(=O)[nH]c2=O)C1`, the Ki – broadly, a measure of affinity in units of concentration, obtained from inhibition or displacement – at Glutamate receptor 2 is 1.99 µM; in [2], 0.356 µM; in data set [3], above 1000 µM; in data set [4], 2.15 µM. Besides, the Ratio Ki worked out at 6 in the data set listed under Rattus norvegicus [1] and 1 in the data set filed under Rattus norvegicus [5].

`N[C@@H](Cn1c2c(c(=O)[nH]c1=O)CNC2)C(=O)O`: the inhibitory constant (Ki) was 2.37 µM on Glutamate receptor 2, 0.869 µM in data set [2], above 1000 µM in [3] and 18.1 µM in [4]. Further, the Ratio Ki in the data set filed under Rattus norvegicus [1] was 21; in the data set filed under Rattus norvegicus [5] it was 8.

Turning to `N[C@@H](Cn1c(=O)[nH]c(=O)c2cscc21)C(=O)O`, the result in the data set with Rattus norvegicus [6], in the data set with Rattus norvegicus [7], in the data set with Rattus norvegicus [8], in the data set with Rattus norvegicus [9], in the data set on Rattus norvegicus [10] and with Rattus norvegicus [11] was Active. Moreover, the outcome in the data set with Rattus norvegicus [12] and with Rattus norvegicus [13] was Active.

With `N[C@@H](Cn1c(=O)n(Cc2ccsc2C(=O)O)c(=O)c2cscc21)C(=O)O`, the result in the data set on Rattus norvegicus [6], in the data set on Rattus norvegicus [7], with Rattus norvegicus [8], in the data set on Rattus norvegicus [10], in the data set on Rattus norvegicus [11] and in the data set with Rattus norvegicus [12] was Active. Also, in the data set with Rattus norvegicus [13], the result was Active. Besides, in [14], the Papp at 1 min, 100 µM stood at 0.59 ×10⁻⁶ cm/s.

With `N[C@@H](Cn1c2c(c(=O)[nH]c1=O)COC2)C(=O)O`, the inhibition constant Ki in data set [2] is 0.586 µM; in data set [3] it was above 1000 µM; in data set [4], 111 µM.

Consider `N[C@@H](Cn1c2c(c(=O)[nH]c1=O)CCC2)C(=O)O`, for which, in [3], the Ki was above 1000 µM.

As for `N[C@@H](Cn1c(=O)n(Cc2nnc(O)o2)c(=O)c2cscc21)C(=O)O`, the Ki was above 100 µM on Glutamate receptor 2, 36 µM in [2], above 1000 µM in [3] and 100 µM in data set [4]. Moreover, in the data set filed under Rattus norvegicus [1], the Ratio Ki is above 3.

Values taken from ChEMBL document CHEMBL4043288, “( S)-2-Amino-3-(5-methyl-3-hydroxyisoxazol-4-yl)propanoic Acid (AMPA) and Kainate Receptor Ligands: Further Exploration of Bioisosteric Replacements and Structural and Biological Investigation” (J Med Chem, 2018).
